From article PMC8049364, “Quantification of Macrophage-Driven Inflammation During Myocardial Infarction with ^18F-LW223, a Novel TSPO Radiotracer with Binding Independent of the rs6971 Human Polymorphism” (Journal of Nuclear Medicine, 2021)

Assays:
[1] = molecular target: TSPO; test: In vitro competition binding assay with ^3H-PK11195 in human heart homogenates (HAB, MAB, LAB); details: for Effect of rs6971 genetic polymorphism on Ki: human heart; for LAB/HAB ratio: human heart homogenates, rs6971 genotyped
Description: (§1) All studies using human tissue were conducted in accordance with the National Health Service Research Ethics Committee South East Scotland (Edinburgh Brain and Tissue Bank, 16/ES/0084). Supplemental Table 1 contains the Brain Bank Network reference number for all tissues used from the Edinburgh Brain and Tissue Bank. […] Samples were homogenized in ×10 w/v buffer (50 mM Tris-Base, pH 7.4, 4°C) before centrifugation (32,000g, 10 min, 4°C). Tissue pellets were then resuspended in ×10 w/v buffer and centrifuged again before resuspending in 2 mL of buffer. Samples were assessed for protein concentration using the Bio-Rad protein assay, aliquoted, and stored at −80°C until use. The competition binding assay protocol was adjusted from a previously reported protocol ([16]), as detailed within the supplemental materials.
(§2) In Vitro Human Competition Binding Assays
(§3) Briefly, 250 µg protein/mL in 200 µl of buffer was added to 100 µl of 1 nM 3H- […]
(§4) Aldrich, USA), PBR28 (ABX, Germany), AB5186 or LW223 at 14 different concentrations (0.001-3000 nM) for 90 min at 4 °C. Binding was terminated with the addition of ice cold buffer before being immediately filtered over a Whatman GF/B filters (Whatman, UK) pre-treated with 0.3% polyethylenimine (Sigma-Aldrich, USA) using a Brandel harvester (Brandel, USA). Filter paper was then removed, placed into 2.5 mL of Optiphase HiSafe 3 (Perkin Elmer, USA) and counted 48 hours later on a Hidex 300 SL (Hidex, Finland).
(§5) All binding assays were performed
(§6) GraphPad Prism version 6 (GraphPad Software, USA) was used to fit all binding affinity curves. A comparison of a one-site and two-site models was made using the least squares algorithm and model selection was compared using an F test. The null hypothesis (one-site fitting as more suitable) was rejected if p<0.05. Normalized mean […]
(§7) saturation binding results, Sup.Fig.2) was used to determine the best fitting model and to calculate LAB:HAB ratios. Affinity values (Ki) were calculated by fitting individual tissue

[2] = molecular target: T1, TSPO (Homo sapiens, UniProt P30536); test: In vitro competition binding assay with ^3H-PK11195 in human brain homogenates (HAB, MAB, LAB); details: for LAB/HAB ratio: human brain homogenates, rs6971 genotyped
Description: as §1, §2, §3, §4, §5, §6, §7

[3] = molecular target: T1, TSPO; test: In vitro competition binding assay with ^3H-PK11195 in human heart homogenates (HAB, MAB, LAB); details: human heart
Description: as §1, §2, §3, §4, §5, §6, §7

[4] = humans; cited from earlier work
[5] = tested on: TSPO; details: cited from earlier work
[6] = tested on: TSPO; details: humans; cited from earlier work
[7] = cited from earlier work

T1 sequence (P30536 2-169): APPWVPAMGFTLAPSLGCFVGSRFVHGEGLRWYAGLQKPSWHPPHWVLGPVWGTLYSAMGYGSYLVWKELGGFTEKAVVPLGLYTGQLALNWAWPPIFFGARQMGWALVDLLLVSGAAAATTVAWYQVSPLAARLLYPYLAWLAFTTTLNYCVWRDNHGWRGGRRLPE

| SMILES | Effect of rs6971 genetic polymorphism on Ki [1] | LAB/HAB ratio [1] | LAB/HAB ratio [2] | VT in the brain [5] | further results |
| --- | --- | --- | --- | --- | --- |
| CCN(CC)C(=O)c1nc2ccccc2c(-c2ccccc2)c1CF [AB5186] | affected | 7 | 9 |  | Effect of rs6971 genetic polymorphism on Ki ([2]; human brain): affected |
| CC[C@@H](C)N(C)C(=O)c1nc2ccccc2c(-c2ccccc2)c1CF [LW223] | unaffected | 1 | 1 |  | Ki [3]: 1.7 nM; Effect of rs6971 genetic polymorphism on Ki ([2]; human brain): unaffected; Ki ([2]; human brain): 0.6 nM |
| COc1ccccc1CN(C(C)=O)c1cnccc1Oc1ccccc1 [PBR28, reference compound] | affected | 48 | 48 |  |  |
| CC[C@@H](C)N([11CH3])C(=O)c1nc(-c2ccccc2Cl)c2ccccc2n1 [^11C-ER176] |  |  |  | 1.6–3.5 mL/cm^3 | parent free fraction in plasma [4]: 3.3% |
| CCC(C)N([11CH3])C(=O)c1cc2ccccc2c(-c2ccccc2Cl)n1 (centres unmarked) [^11C-PK11195] |  |  |  | 0.6–0.74 mL/cm^3 | parent free fraction in plasma [4]: 1%; SUVpeak, heart [6]: 5; SUVpeak, lung [6]: 3; parent in plasma ([7]; same lower species (rat)): ~40% |
| CN(C(=O)Cn1c(=O)oc2ccc(-c3ccc(OCC[18F])cc3)cc21)c1ccccc1 [^18F-FEBMP] |  |  |  |  | original parent compound found in blood ([7]; rats, 30 min after injection): less than 10% |
| CCN(CC)C(=O)[C@H]1CCCc2c1c1c(OC)cccc1n2CC[18F] [^18F-GE180, Flutriciclamide] |  |  |  | 0.10–0.28 mL/cm^3 |  |
| CCN(CC)C(=O)Cc1c(-c2ccc(OCCC[18F])cc2)nc2ccc(Cl)cn12 [^18F-PBR111] |  |  |  | 2.22–4.03 mL/cm^3 |  |
